Here are results for eight compounds from patent US7741521B2, “Inhibition of bid-induced cell-death using small organic molecules” (The Burnham Institute, priority 2004, dated 2010).

The first experiment addresses T1, tBID (Mus musculus, UniProt P70444).
T1 construct: tBID was produced by cleavage of purified BID with caspase-8, as known in the art; made in house; host or cells: E. coli BL21 (BID), then cleaved in vitro with caspase-8
T1 sequence (P70444 60-195 limits assumed): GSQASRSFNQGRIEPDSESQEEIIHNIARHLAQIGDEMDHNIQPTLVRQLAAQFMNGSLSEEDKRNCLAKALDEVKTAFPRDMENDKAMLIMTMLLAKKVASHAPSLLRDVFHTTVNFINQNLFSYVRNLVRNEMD
T1 sequence (P70444 1-59 partner limits assumed): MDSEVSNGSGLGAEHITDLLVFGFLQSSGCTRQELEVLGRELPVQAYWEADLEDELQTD
The experiment can be described thus: tBID-induced Smac release from isolated mitochondria. Conditions: 50 μM compound; isolated mitochondria. Format: biochemical. As for the experimental part: 100 ng of tBID (cleaved by caspase 8) was pre-incubated with various concentrations of compounds for 15 minutes at 30° C. in HM buffer (10 mM Hepes, pH 7.4, 250 mM Mannitol, 10 mM KCl, 1.5 mM MgCl, 1 mM DTT, 1 mM EGTA), then 50 μg of isolated mitochondria from HCT116 cells were added to a final volume of 50 μl in HM buffer. After 1 hour incubation at 30° C., the samples were centrifuged at 10,000×g for 5 minutes at 4° C. and the supernatant was analyzed by SDS-PAGE/immunoblotting using anti-SMAC antibody.
Compounds II-IX were tested in vitro for their ability to inhibit BID-mediated release of Smac using mitochondria isolated from HeLa cells (FIG. 6A). The first lane represents mitochondria incubated without tBID. All others received 100 ng tBID without or with compounds. Each compound was tested at a concentration of 50 μM. […] To preliminarily investigate the mechanism by which compound II reduces Smac-release from isolated mitochondria, the tBID protein was treated with different concentrations of BI-6C9, after which it was incubated with mitochondria, followed by analysis of the bound and unbound fractions by immunoblotting using BID antibody. The concentration of mitochondria-bound tBID diminished in response to increasing concentrations of compound II.
About 50 ng of tBID cleaved by […] was pre-incubated for about 15 minutes at about 30° C. with various concentrations of compounds I, II, and X. Then, about 50 μg of isolated mitochondria from Hela cells were added to the reaction system. After about 1 hour of incubation at about 30° C., the samples were centrifuged at 10,000×g for about 5 minutes at about 4° C., and the supernatant was analyzed by SDS-PAGE/immunoblotting using Smac antibody. The results of the analysis are presented on FIG. 8. As shown by FIG. 9, compound I is a strong binder for BID.
Some results of comparative studies of compounds I and II are shown on FIG. 10. […] The first lane represents mitochondria incubated without tBID. All others received 50 ng tBid without or with bi-dentate compound.
Compound `COc1ccc(S(=O)(=O)NCCCCCC(=O)Nc2ccc(Sc3ccc([N+](=O)[O-])cc3)cc2)cc1` [Compound V, 6-(4-methoxy-benzenesulfonylamino)-hexanoic acid [4-(4-nitro-phenylsulfanyl)-phenyl]-amide] returned an inhibition at 50 µM of 16%.
Turning to `NCCCC(=O)Nc1ccc(Sc2ccc([N+](=O)[O-])cc2)cc1` [Compound VII, 4-amino-N-[4-(4-nitro-phenylsulfanyl)-phenyl]-butyramide], the inhibition at 50 µM worked out at 66%.
Still for that read-out and setting: to `NCCCCCC(=O)Nc1ccc(Sc2ccc([N+](=O)[O-])cc2)cc1` [Compound IX, 6-amino-hexanoic acid [4-(4-nitro-phenylsulfanyl)-phenyl]-amide] belongs 60%; to `CC(C)(C)OC(=O)NCCCC(=O)Nc1ccc(Sc2ccc([N+](=O)[O-])cc2)cc1` [Compound VI, {3-[4-(4-nitro-phenylsulfanyl)-phenylcarbamoyl]-propyl}-carbamic acid tert-butyl ester], 14%; to `COc1ccc(S(=O)(=O)NCCCC(=O)Nc2ccc(Sc3ccc([N+](=O)[O-])cc3)cc2)cc1` [Compound III, 4-(4-methoxy-benzenesulfonylamino)-N-[4-(4-nitro-phenylsulfanyl)-phenyl]-butyramide], 24%.
As to `CNS(=O)(=O)c1ccc(C)cc1` [X], the inhibition at 50 µM was determined as 0%.
The same measure, in the same setting: in the case of `Nc1ccc(Sc2ccc(N)cc2)cc1` [XII] it was 22%; in that of `CC(C)(C)OC(=O)NCCCCCC(=O)Nc1ccc(Sc2ccc([N+](=O)[O-])cc2)cc1` [Compound VIII, {5-[4-(4-nitro-phenylsulfanyl)-phenylcarbamoyl]-pentyl}-carbamic acid tert-butyl ester], 0%.

Another experiment concerns the target T2, BID (Mus musculus, UniProt P70444).
T2 construct: poly-His (N); made in house; host or cells: E. coli BL21
T2 sequence (P70444 1-195): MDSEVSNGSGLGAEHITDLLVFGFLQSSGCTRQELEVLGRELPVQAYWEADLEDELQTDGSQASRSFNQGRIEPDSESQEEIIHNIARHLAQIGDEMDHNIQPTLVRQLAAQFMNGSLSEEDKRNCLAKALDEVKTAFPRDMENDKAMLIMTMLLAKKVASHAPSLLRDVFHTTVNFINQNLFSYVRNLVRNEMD
The experiment in a line: NMR binding to BID (HSQC/TROSY chemical shifts). The note with it: NMR. As for the experimental part: Recombinant full length mouse BID was produced from a pET-19b (Novagen) plasmid construct containing the entire nucleotide sequence for BID fused to an N-terminal poly-His tag. Unlabeled BID was expressed in E. coli BL21 in LB media at 37° C., with an induction period of 3-4 hours with 1 mM IPTG. ^15N-labeled BID was similarly produced, with growth occurring in M9 media supplemented with 0.5 g/L ^15NH4Cl. ε-^13C-Met labeled BID was produced in M9 media supplemented with 50 mg/L of ε-^13C-Met at time of induction with IPTG. Following cell lysis, soluble BID was purified over a Hi-Trap chelating column (Amersham, Pharmacia), followed by ion-exchange purification with a MonoQ (Amersham, Pharmacia) column. Final BID samples were dialyzed into a buffer appropriate for the subsequent experiments. tBID was produced by cleavage of purified BID with caspase-8, as known in the art.
For all NMR experiments, BID was exchanged into 50 mM phosphate buffer at pH 7.5 and measurements were performed at 30° C. 2D [^15N,^1H]-TROSY spectra for BID were measured with 0.5 mM samples of ^15N-labeled BID. 2D [^13C,^1H]-HSQC spectra were measured with 0.2 mM samples of ε-^13C-Met labeled BID. 2D [^1H,^1H]-NOESY spectra were acquired with small molecules at a concentration of 0.9 mM in the presence of 10 μM BID. T1ρ competition experiments (200 msec spin-lock duration) were performed on either 100 μM BI-2A7 or a mixture of 100 μM BI-2A7 and 10 μM BI-6C9, in the presence and absence of 10 μM BID. All experiments were performed with either a 500 MHz or 600 MHz Bruker Avance spectrometer, both equipped with TXI probes. Typical parameters for the 2D [^15N,^1H]-TROSY spectra included ^1H and ^15N π/2 pulse lengths of 11 μsec and 40 μsec, respectively; ^1H and ^15N sweep widths of 12 ppm and 32 ppm, respectively; 16 scans and 256 indirect acquisition points and a recycle delay of 1 sec. For the 2D [^13C,^1H]-HSQC typical parameters included ^1H and ^13C π/2 pulse lengths of 10 μsec and 13 μsec, respectively; ^1H and ^13C sweep widths of 12 ppm and 5 ppm, respectively; 128 scans and 80 indirect acquisition points and a recycle delay of 1 sec. […]
To examine the binding affinity of some compounds of the invention to BID, 2D [^13C,^1H]-HSQC spectra in presence of ^13C methionine-labeled protein were measured, as at least one methionine is present in the hydrophobic groove of BID (FIG. 4B). […]
Monitoring the variation of cross-peak intensity upon addition of increasing amounts of compound II, allowed to estimate its dissociation constant KD. The arrow on FIG. 5C indicates the peak that was monitored to determine the Kd for compound II. […]
In the case of `Nc1ccc(Sc2ccc(N)cc2)cc1` [XII], the “binding to BID” value was “weak binder”.

Broadly, the inhibition is the drop in the measured response relative to a control, in per cent.
